Laboratory results: PubChem BioAssay AID2060888 (Molecular Pharmacology Branch, DTP, NCI, 2025)
pIC50: −log10 of the molar value.

Test system: 695427-040-R-J1-PDC complex spheroid viability
Test: Anticancer human tumor 695427-040-R-J1-PDC patient-derived colon adenocarcinoma cell line growth inhibition [RAS]
Conditions: for pIC50: curve of first compound; for viability, T/C: stronger effect = lower value
In short: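 Agents were tested in combination matrices in half-log decrements from a top concentration at or near clinical Cmax (10 microM if undetermined). Targets were multi-cell spheroids of tumour lines plus HUVEC and MSC stromal cells.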

[1] = second compound 0.000949 µM, first compound 0.000949 µM
[2] = second compound 0.000949 µM, first compound 0.003 µM
[3] = second compound 0.000949 µM, first compound 0.00949 µM
[4] = second compound 0.000949 µM, first compound 0.03 µM
[5] = second compound 0.000949 µM, first compound 0.0949 µM
[6] = second compound 0.000949 µM, first compound 0.3 µM
[7] = second compound 0.003 µM, first compound 0.000949 µM
[8] = second compound 0.003 µM, first compound 0.003 µM
[9] = second compound 0.003 µM, first compound 0.00949 µM
[10] = second compound 0.003 µM, first compound 0.03 µM
[11] = second compound 0.003 µM, first compound 0.0949 µM
[12] = second compound 0.003 µM, first compound 0.3 µM
[13] = second compound 0.00949 µM, first compound 0.000949 µM
[14] = second compound 0.00949 µM, first compound 0.003 µM
[15] = second compound 0.00949 µM, first compound 0.00949 µM
[16] = second compound 0.00949 µM, first compound 0.03 µM
[17] = second compound 0.00949 µM, first compound 0.0949 µM
[18] = second compound 0.00949 µM, first compound 0.3 µM
[19] = second compound 0.03 µM, first compound 0.000949 µM
[20] = second compound 0.03 µM, first compound 0.003 µM
[21] = second compound 0.03 µM, first compound 0.00949 µM
[22] = second compound 0.03 µM, first compound 0.03 µM
[23] = second compound 0.03 µM, first compound 0.0949 µM
[24] = second compound 0.03 µM, first compound 0.3 µM
[25] = second compound 0.0949 µM, first compound 0.000949 µM
[26] = second compound 0.0949 µM, first compound 0.003 µM
[27] = second compound 0.0949 µM, first compound 0.00949 µM
[28] = second compound 0.0949 µM, first compound 0.03 µM
[29] = second compound 0.0949 µM, first compound 0.0949 µM
[30] = second compound 0.0949 µM, first compound 0.3 µM
[31] = second compound 0.3 µM, first compound 0.000949 µM
[32] = second compound 0.3 µM, first compound 0.003 µM
[33] = second compound 0.3 µM, first compound 0.00949 µM
[34] = second compound 0.3 µM, first compound 0.03 µM
[35] = second compound 0.3 µM, first compound 0.0949 µM
[36] = second compound 0.3 µM, first compound 0.3 µM
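Also: viability read after seven days of drug exposure.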
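For viability, T/C in this document: 100% = DMSO vehicle control viability.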

Structure (SMILES): C=CC(=O)N1CCN(c2nc(OCC3CCCN3C)nc3c(F)c(-c4nc(N)cc(C)c4C(F)(F)F)c(Cl)cc23)C(C)C1 (stereo unspecified) + CCn1c(-c2cccnc2C(C)OC)c2c3cc(ccc31)N1CCOC(CC(NC(=O)C(C(C)C)N(C)C(=O)C3(F)CCN(C(=O)C#CC(C)(C)N(C)C)CC3)C(=O)N3CCCC(N3)C(=O)OCC(C)(C)C2)C1
- pIC50 (second compound 0.000949 µM): < 6.00
- pIC50 (second compound 0.003 µM): < 6.00
- pIC50 (second compound 0.00949 µM): < 6.00
- pIC50 (second compound 0.03 µM): < 6.00
- pIC50 (second compound 0.0949 µM): < 6.00
- pIC50 (second compound 0.3 µM): < 6.00
- viability, T/C (second compound 0.000949 µM, first compound 0.00316 µM): 113%
- viability, T/C (second compound 0.000949 µM, first compound 0.01 µM): 102%
- viability, T/C (second compound 0.000949 µM, first compound 0.0316 µM): 76.5%
- viability, T/C (second compound 0.000949 µM, first compound 0.1 µM): 75.5%
- viability, T/C (second compound 0.000949 µM, first compound 0.316 µM): 95.3%
- viability, T/C (second compound 0.000949 µM, first compound 1 µM): 93.1%
- viability, T/C (second compound 0.003 µM, first compound 0.00316 µM): 109%
- viability, T/C (second compound 0.003 µM, first compound 0.01 µM): 98.4%
- viability, T/C (second compound 0.003 µM, first compound 0.0316 µM): 94%
- viability, T/C (second compound 0.003 µM, first compound 0.1 µM): 77%
- viability, T/C (second compound 0.003 µM, first compound 0.316 µM): 99.4%
- viability, T/C (second compound 0.003 µM, first compound 1 µM): 106%
- viability, T/C (second compound 0.00949 µM, first compound 0.00316 µM): 104%
- viability, T/C (second compound 0.00949 µM, first compound 0.01 µM): 116%
- viability, T/C (second compound 0.00949 µM, first compound 0.0316 µM): 85.1%
- viability, T/C (second compound 0.00949 µM, first compound 0.1 µM): 80%
- viability, T/C (second compound 0.00949 µM, first compound 0.316 µM): 105%
- viability, T/C (second compound 0.00949 µM, first compound 1 µM): 95%
- viability, T/C (second compound 0.03 µM, first compound 0.00316 µM): 97.1%
- viability, T/C (second compound 0.03 µM, first compound 0.01 µM): 104%
- viability, T/C (second compound 0.03 µM, first compound 0.0316 µM): 85.2%
- viability, T/C (second compound 0.03 µM, first compound 0.1 µM): 75.9%
- viability, T/C (second compound 0.03 µM, first compound 0.316 µM): 100%
- viability, T/C (second compound 0.03 µM, first compound 1 µM): 108%
- viability, T/C (second compound 0.0949 µM, first compound 0.00316 µM): 96.9%
- viability, T/C (second compound 0.0949 µM, first compound 0.01 µM): 101%
- viability, T/C (second compound 0.0949 µM, first compound 0.0316 µM): 107%
- viability, T/C (second compound 0.0949 µM, first compound 0.1 µM): 84.4%
- viability, T/C (second compound 0.0949 µM, first compound 0.316 µM): 102%
- viability, T/C (second compound 0.0949 µM, first compound 1 µM): 107%
- viability, T/C (second compound 0.3 µM, first compound 0.00316 µM): 84.2%
- viability, T/C (second compound 0.3 µM, first compound 0.01 µM): 86.4%
- viability, T/C (second compound 0.3 µM, first compound 0.0316 µM): 89.1%
- viability, T/C (second compound 0.3 µM, first compound 0.1 µM): 88.8%
- viability, T/C (second compound 0.3 µM, first compound 0.316 µM): 88.7%
- viability, T/C (second compound 0.3 µM, first compound 1 µM): 78%

Structure (SMILES): CC1(C)CCC(Nc2ncc(C(F)(F)F)c(-c3c[nH]c4c(P(C)(C)=O)c(C#N)ccc34)n2)CN1 (stereo unspecified) + CCn1c(-c2cccnc2C(C)OC)c2c3cc(ccc31)N1CCOC(CC(NC(=O)C(C(C)C)N(C)C(=O)C3(F)CCN(C(=O)C#CC(C)(C)N(C)C)CC3)C(=O)N3CCCC(N3)C(=O)OCC(C)(C)C2)C1
- pIC50 (second compound 0.000949 µM): < 6.52
- pIC50 (second compound 0.003 µM): < 6.52
- pIC50 (second compound 0.00949 µM): < 6.52
- pIC50 (second compound 0.03 µM): < 6.52
- pIC50 (second compound 0.0949 µM): < 6.52
- pIC50 (second compound 0.3 µM): < 6.52
- viability, T/C [1]: 85%
- viability, T/C [2]: 116%
- viability, T/C [3]: 95.5%
- viability, T/C [4]: 100%
- viability, T/C [5]: 85.6%
- viability, T/C [6]: 90.6%
- viability, T/C [7]: 104%
- viability, T/C [8]: 105%
- viability, T/C [9]: 81%
- viability, T/C [10]: 103%
- viability, T/C [11]: 86.9%
- viability, T/C [12]: 55.1%
- viability, T/C [13]: 108%
- viability, T/C [14]: 104%
- viability, T/C [15]: 98.3%
- viability, T/C [16]: 113%
- viability, T/C [17]: 103%
- viability, T/C [18]: 65.4%
- viability, T/C [19]: 101%
- viability, T/C [20]: 80.8%
- viability, T/C [21]: 89.9%
- viability, T/C [22]: 90.5%
- viability, T/C [23]: 97.5%
- viability, T/C [24]: 90.1%
- viability, T/C [25]: 105%
- viability, T/C [26]: 78.2%
- viability, T/C [27]: 107%
- viability, T/C [28]: 98%
- viability, T/C [29]: 93.3%
- viability, T/C [30]: 80.2%
- viability, T/C [31]: 75.7%
- viability, T/C [32]: 93.8%
- viability, T/C [33]: 84.3%
- viability, T/C [34]: 92.1%
- viability, T/C [35]: 85.7%
- viability, T/C [36]: 78.1%

Structure (SMILES): CCc1c2c(nc3ccc(O)cc13)-c1cc3c(c(=O)n1C2)COC(=O)[C@]3(O)CC + CCn1c(-c2cccnc2C(C)OC)c2c3cc(ccc31)N1CCOC(CC(NC(=O)C(C(C)C)N(C)C(=O)C3(F)CCN(C(=O)C#CC(C)(C)N(C)C)CC3)C(=O)N3CCCC(N3)C(=O)OCC(C)(C)C2)C1
- pIC50 (second compound 0.000949 µM): 6.95
- pIC50 (second compound 0.003 µM): 6.88
- pIC50 (second compound 0.00949 µM): 7.31
- pIC50 (second compound 0.03 µM): 7.16
- pIC50 (second compound 0.0949 µM): 7.10
- pIC50 (second compound 0.3 µM): 7.02
- viability, T/C [1]: 97.1%
- viability, T/C [2]: 93.3%
- viability, T/C [3]: 84.2%
- viability, T/C [4]: 61.5%
- viability, T/C [5]: 56.7%
- viability, T/C [6]: 37.7%
- viability, T/C [7]: 91.7%
- viability, T/C [8]: 84.6%
- viability, T/C [9]: 66.1%
- viability, T/C [10]: 64.1%
- viability, T/C [11]: 53%
- viability, T/C [12]: 43.1%
- viability, T/C [13]: 98.3%
- viability, T/C [14]: 76.8%
- viability, T/C [15]: 65.8%
- viability, T/C [16]: 63.4%
- viability, T/C [17]: 36.5%
- viability, T/C [18]: 35.8%
- viability, T/C [19]: 79.8%
- viability, T/C [20]: 96.4%
- viability, T/C [21]: 80.1%
- viability, T/C [22]: 71.6%
- viability, T/C [23]: 41.7%
- viability, T/C [24]: 31.5%
- viability, T/C [25]: 87.3%
- viability, T/C [26]: 79.5%
- viability, T/C [27]: 81.6%
- viability, T/C [28]: 49.7%
- viability, T/C [29]: 57%
- viability, T/C [30]: 24.2%
- viability, T/C [31]: 82.7%
- viability, T/C [32]: 101%
- viability, T/C [33]: 69.7%
- viability, T/C [34]: 58.8%
- viability, T/C [35]: 57%
- viability, T/C [36]: 31.2%
